Source: patent publication US20050176655A1, “Novel macrolide derivatives havaing effect of potentiating antifungal activity” (priority 2002, published 2005)

Legend:
Experiment in all cases: Paper disk method, enhancing action for activities of azole antifungal agents
Assay type in all cases: cell-based
[1] = system: fluconazole resistant Candida albicans ATCC 64550; conditions: 24 hours; for Inhibition activity (inhibition ring mm) C. albicans ATCC 64550 GYF / Transparency of the inhibition ring C. albicans ATCC 64550 GYF: fluconazole 30 μg/ml; for Inhibition activity (inhibition ring mm) C. albicans ATCC 64550 GYM / Transparency of the inhibition ring C. albicans ATCC 64550 GYM: miconazole 0.15 μg/ml
Description: Test organisms used were Candida albicans ATCC 64548, fluconazole resistant Candida albicans ATCC 64550 and Aspergillus niger ATCC 6275. Candida spp. were cultured in Waksman broth (glucose 2.0%, peptone 0.5%, dry yeast 0.3%, meat extract 0.5%, NaCl 0.5% and CaCO3 0.3%, pH 7.0) at 27° C. for 40 hours, then 0.1% thereof was inoculated on GY agar medium (glucose 1.0%, yeast extract 0.5% and agar 0.8%, pH 6.0). Spore suspension 0.2% of Aspergillus niger ATCC 6275 was inoculated on GY agar medium.
Azole antifungal agents used were miconazole (Sigma Inc., the U.S.) and fluconazole (ICN Pharmaceuticals, Inc., the U.S.), and were added at concentrations without affecting growth on each test organisms follows.
Candida albicans ATCC 64550: miconazole 0.15 μg/ml or fluconazole 30 μg/ml.
In the above medium, a medium added with miconazole to GY medium (control) is designated as GYM, and a medium added with fluconazole is designated as GYF. Activities were assessed by means of paper disk method (thickness: 8 mm, ADVANTEC MFS INC., Japan). Diameter of inhibition ring is expressed with mm unit after culturing Candida spp. for 24 hours and Aspergillus niger ATCC 6275 for 48 hours. Transparency of the inhibition ring is assessed with 5 degrees of A, B, C, D and E (transparence<A<B<C<D<E<opaque).

[2] = system: Candida albicans ATCC 64548; conditions: 24 hours; for Inhibition activity (inhibition ring mm) C. albicans ATCC 64548 GYM / Transparency of the inhibition ring C. albicans ATCC 64548 GYM: miconazole 0.03 μg/ml; for Inhibition activity (inhibition ring mm) C. albicans ATCC 64548 GYF / Transparency of the inhibition ring C. albicans ATCC 64548 GYF: fluconazole 0.5 μg/ml
Summary of the method: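 GY agar (pH 6.0) seeded with C. albicans ATCC 64548 precultured in Waksman broth at 27° C for 40 hours, supplemented with sub-growth-inhibitory miconazole 0.03 μg/ml or fluconazole 0.5 μg/ml. Paper disk method; inhibition-zone diameter (mm) read after 24 hours, transparency graded A–E.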

[3] = system: Aspergillus niger ATCC 6275; conditions: 48 hours; for Inhibition activity (inhibition ring mm) A. niger ATCC 6275 GYF / Transparency of the inhibition ring A. niger ATCC 6275 GYF: fluconazole 10 μg/ml; for Inhibition activity (inhibition ring mm) A. niger ATCC 6275 GYM / Transparency of the inhibition ring A. niger ATCC 6275 GYM: miconazole 0.1 μg/ml; for Inhibition activity (inhibition ring mm) A. niger ATCC 6275 GY / Transparency of the inhibition ring A. niger ATCC 6275 GY: GY medium (control, no azole)
Summary of the method: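 Paper-disk assay on A. niger ATCC 6275 spores (0.2%) seeded on GY agar pH 6.0. After 48 h, inhibition-zone diameter recorded in mm and transparency graded A (transparent) to E (opaque).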

SMILES	Inhibition activity (inhibition ring mm) C. albicans ATCC 64550 GYF ([1]; 50 μg/8 mm disk)	Transparency of the inhibition ring C. albicans ATCC 64550 GYF ([1]; 50 μg/8 mm disk)	Inhibition activity (inhibition ring mm) C. albicans ATCC 64550 GYM ([1]; 50 μg/8 mm disk)	Transparency of the inhibition ring C. albicans ATCC 64550 GYM ([1]; 50 μg/8 mm disk)	Inhibition activity (inhibition ring mm) C. albicans ATCC 64548 GYM ([2]; 50 μg/8 mm disk)	Transparency of the inhibition ring C. albicans ATCC 64548 GYM ([2]; 50 μg/8 mm disk)	Inhibition activity (inhibition ring mm) A. niger ATCC 6275 GYF ([3]; 10 μg/8 mm disk)	Transparency of the inhibition ring A. niger ATCC 6275 GYF ([3]; 10 μg/8 mm disk)	Inhibition activity (inhibition ring mm) A. niger ATCC 6275 GYF ([3]; 50 μg/8 mm disk)	Transparency of the inhibition ring A. niger ATCC 6275 GYF ([3]; 50 μg/8 mm disk)	Inhibition activity (inhibition ring mm) A. niger ATCC 6275 GYM ([3]; 50 μg/8 mm disk)	Transparency of the inhibition ring A. niger ATCC 6275 GYM ([3]; 50 μg/8 mm disk)	Inhibition activity (inhibition ring mm) C. albicans ATCC 64550 GYF ([1]; 10 μg/8 mm disk)	Transparency of the inhibition ring C. albicans ATCC 64550 GYF ([1]; 10 μg/8 mm disk)	Inhibition activity (inhibition ring mm) C. albicans ATCC 64548 GYM ([2]; 10 μg/8 mm disk)	Transparency of the inhibition ring C. albicans ATCC 64548 GYM ([2]; 10 μg/8 mm disk)	Inhibition activity (inhibition ring mm) C. albicans ATCC 64548 GYF ([2]; 50 μg/8 mm disk)	Transparency of the inhibition ring C. albicans ATCC 64548 GYF ([2]; 50 μg/8 mm disk)	Inhibition activity (inhibition ring mm) A. niger ATCC 6275 GY ([3]; 50 μg/8 mm disk)	Transparency of the inhibition ring A. niger ATCC 6275 GY ([3]; 50 μg/8 mm disk)	further results
CCC(=O)OC1C(C)OC(OC2C(C)C(=O)OC(C(C)(O)C(CC)OC(=O)CC)C(C)C3=C(C)CC(C)(O3)C(OC3OC(C)CC(N(C)C)C3O)C2C)CC1(C)OC (stereo not shown) [Compound 776, 4″,13-Di-O-propionyl-8,9-Anhydro-pseudo-erythromycin A 6,9-hemiketal]	9 mm	E (Growth of test organism was inhibited 35% or less.)	11 mm	E (Growth of test organism was inhibited 35% or less.)	11 mm	D (Growth of test organism was inhibited 35% or more and 55% or less.)	16 mm	E (Growth of test organism was inhibited 35% or less.)	16 mm	E (Growth of test organism was inhibited 35% or less.)	20 mm	C (Growth of test organism was inhibited 55% or more and 75% or less.)									Inhibition activity (inhibition ring mm) C. albicans ATCC 64548 GYF ([2]; 100 μg/8 mm disk): 15 mm; Transparency of the inhibition ring C. albicans ATCC 64548 GYF ([2]; 100 μg/8 mm disk): E (Growth of test organism was inhibited 35% or less.)
CCCCCC(=O)OC1C(C)OC(OC2C(C)C(=O)OC(C(C)(O)C(CC)OC(=O)CCCCC)C(C)C3=C(C)CC(C)(O3)C(OC3OC(C)CC(N(C)C)C3O)C2C)CC1(C)OC (stereo not shown) [Compound 777, 4″,13-Di-O-hexanoyl-8,9-Anhydro-pseudo-erythromycin A 6,9-hemiketal]	14 mm	A (Growth of test organism was inhibited 95% or more.)	14 mm	A (Growth of test organism was inhibited 95% or more.)	14 mm	A (Growth of test organism was inhibited 95% or more.)	11 mm	E (Growth of test organism was inhibited 35% or less.)	17 mm	D (Growth of test organism was inhibited 35% or more and 55% or less.)	13 mm	B (Growth of test organism was inhibited 75% of more and 95% or less.)	11 mm	D (Growth of test organism was inhibited 35% or more and 55% or less.)	11 mm	D (Growth of test organism was inhibited 35% or more and 55% or less.)	11 mm	D (Growth of test organism was inhibited 35% or more and 55% or less.)	9 mm	E (Growth of test organism was inhibited 35% or less.)	Inhibition activity (inhibition ring mm) A. niger ATCC 6275 GYM ([3]; 10 μg/8 mm disk): 11 mm; Transparency of the inhibition ring A. niger ATCC 6275 GYM ([3]; 10 μg/8 mm disk): E (Growth of test organism was inhibited 35% or less.)
CCC(OC(=O)c1ccccc1)C(C)(O)C1OC(=O)C(C)C(OC2CC(C)(OC)C(OC(=O)c3ccccc3)C(C)O2)C(C)C(OC2OC(C)CC(N(C)C)C2O)C2(C)CC(C)=C(O2)C1C (stereo not shown) [Compound 778, 4″,13-Di-O-benzoyl-8,9-Anhydro-pseudo-erythromycin A 6,9-hemiketal]	13 mm	B (Growth of test organism was inhibited 75% of more and 95% or less.)	14 mm	B (Growth of test organism was inhibited 75% of more and 95% or less.)	16 mm	A (Growth of test organism was inhibited 95% or more.)	12 mm	E (Growth of test organism was inhibited 35% or less.)	13 mm	D (Growth of test organism was inhibited 35% or more and 55% or less.)	16 mm	A (Growth of test organism was inhibited 95% or more.)	10 mm	E (Growth of test organism was inhibited 35% or less.)	12 mm	B (Growth of test organism was inhibited 75% of more and 95% or less.)	9 mm	D (Growth of test organism was inhibited 35% or more and 55% or less.)	10 mm	E (Growth of test organism was inhibited 35% or less.)	Inhibition activity (inhibition ring mm) A. niger ATCC 6275 GYM ([3]; 10 μg/8 mm disk): 14 mm; Transparency of the inhibition ring A. niger ATCC 6275 GYM ([3]; 10 μg/8 mm disk): E (Growth of test organism was inhibited 35% or less.)
CCC(OC(=O)c1ccccc1)C(C)(O)C1OC(=O)C(C)C(OC2CC(C)(OC)C(O)C(C)O2)C(C)C(OC2OC(C)CC(N(C)C)C2O)C2(C)CC(C)=C(O2)C1C (stereo not shown) [Compound 779, 13-O -benzoyl-8,9-Anhydro-pseudoerythro-mycin A 6,9-hemiketal]	10 mm	E (Growth of test organism was inhibited 35% or less.)	11 mm	D (Growth of test organism was inhibited 35% or more and 55% or less.)	15 mm	A (Growth of test organism was inhibited 95% or more.)	11 mm	E (Growth of test organism was inhibited 35% or less.)	13 mm	D (Growth of test organism was inhibited 35% or more and 55% or less.)	17 mm	E (Growth of test organism was inhibited 35% or less.)			10 mm	E (Growth of test organism was inhibited 35% or less.)	9 mm	D (Growth of test organism was inhibited 35% or more and 55% or less.)	11 mm	E (Growth of test organism was inhibited 35% or less.)	
